The text below walks through data of US5972927A, “Diazepinoindoles as phosphodiesterase 4 inhibitors” (Jouveinal, priority 1996, dated 1999).

The structures appear in SMILES notation. Counter-ions that a name gives are not always drawn.

One data set addresses PDE 4. The data set is described as follows: Inhibition of PDE 4 compared with rolipram, enzyme preparation obtained from the line U937. The class given is biochemical, human. Particulars: ratio to rolipram on the same enzymatic preparation; PDE 4 from U937 line; inhibitor 0.1 to 100 μM. As to the method: The capacity of the compounds of formula (I) of the invention to inhibit cyclic nucleotide phosphodiesterases is evaluated by measuring their IC50 (concentration necessary to inhibit the enzymatic activity by 50%). In the case of PDEs 4, this value is compared to the IC50 of rolipram, a PDE 4-specific inhibitor, relative to the IC50 of rolipram on the IC50 of the product to be tested with respect to the same enzymatic preparation.
The various types of phosphodiesterase are obtained partially purified on a DEAE-cellulose column from guinea pig trachea and dog aorta according to a method adapted from W. J. Thompson et al., 1979, Advances in Cyclic Nucleotide Research, Vol. 10: 69-92, ed. G. Brooker et al. Raven Press, New York, and from P. J. Silver et al., 1988, Eur. J. Pharmacol. 150: 85-94, and from the U937 cell line of human origin, according to a method adapted from T. J. Torphy et al., 1992, J. Pharm. Exp. Ther. 263: 1195-1205.
Measurement of the enzymatic activity for the various types of PDE, and in particular for the PDEs 4, is then made according to a method also adapted from W. J. Thompson, Ibidem.
In order to determine the IC50, the enzymatic activity is measured in the presence of the inhibitor over a range of concentrations from 0.1 to 100 μM.
The following table illustrates the inhibitory activity of PDE 4 when compared with that of rolipram on an enzyme preparation obtained from the line U937.
For `Nc1cc2c3c(c1)C(c1ccccc1)=N[C@@H](NC(=O)c1ccncc1)C(=O)N3CC2` [12A (salt)], the “IC50 rolipram / IC50 example” value is 5.7.

Consider `O=C(N[C@@H]1N=C(c2ccccc2)c2cc(O)cc3c2N(CC3)C1=O)c1cc2ccccc2cn1` [Example 1, (3R)-Isoguinoline-3-carboxylic acid (9-hydroxy-4-oxo-1-phenyl-3,4,6,7-tetrahydro-[1,4]diazepino[6,7,1-hi]indol-3-yl)amide], for which the “IC50 rolipram / IC50 example” value came out at 1.9. `Nc1cc2c3c(c1)C(c1ccccc1)=N[C@@H](NC(=O)c1cc(Cl)c(N)c(Cl)c1)C(=O)N3CC2` [Example 4, (3R)-4-Amino-N-(9-amino-4-oxo-1-phenyl-3,4,6,7-tetrahydro[1,4]diazepino [6,7,1-hi]indol-3-yl)-3,5-dichlorobenzamide]: the “IC50 rolipram / IC50 example” value is 33.0.

For `COc1cc(N)c(Cl)cc1C(=O)N[C@@H]1N=C(c2ccccc2)c2cc(N)cc3c2N(CC3)C1=O` [Example 8, (3R)-4-Amino-N-(9-amino-4-oxo-1-phenyl-3,4,6,7-tetrahydro[1,4]diazepino[6,7,1-hi]indol-3-yl)-5-chloro-2-methoxybenzamide], the “IC50 rolipram / IC50 example” value is reported as 3.4. For `Nc1cc2c3c(c1)C(c1ccccc1)=N[C@@H](NC(=O)c1ccncc1)C(=O)N3CC2` [Example 12, (3R)-N-(9-Amino-4-oxo-1-phenyl-3,4,6,7-tetra-hydro[1,4]diazepinor [6,7,1-hi]indol-3-yl)-isonicotinamide], the “IC50 rolipram / IC50 example” value is reported as 2.0.

Take `CC(C)(C)OC(=O)Nc1cnccc1C(=O)N[C@@H]1N=C(c2ccccc2)c2cc(N)cc3c2N(CC3)C1=O` [Example 13, (3R)-3-t-Butyloxycarbonylamino-N-(9-amino-4-oxo-1-phenyl-3,4,6,7-tetrahydro[1,4]diazepino[6,7,1-hi]indol-3-yl)isonicotinamide]: the “IC50 rolipram / IC50 example” value came out at 1.6. The same measure, in the same setting: in the case of `Nc1cc2c3c(c1)C(c1ccccc1)=N[C@@H](NC(=O)c1cc4ccccc4cn1)C(=O)N3CC2` [Example 18, (3R)-Isoquinoline-3-carboxylic acid (9-amino-4-oxo-1-phenyl-3,4,6,7-tetrahydro[1,4]-diazepino[6,7,1-hi]indol-3-yl)amide] it was 11.0; in that of `Nc1cc2c3c(c1)C(c1ccccc1)=N[C@@H](NC(=O)c1cnc4ccccc4c1)C(=O)N3CC2` [Example 19, (3R)-Quinoline-3-carboxylic acid (9-amino-4-oxo-1-phenyl-3,4,6,7-tetrahydro[1,4]-diazepino[6,7,1-hi]indol-3-yl)amide], 1.4. For `Cc1cc2nnc(C(=O)N[C@@H]3N=C(c4ccccc4)c4cc(N)cc5c4N(CC5)C3=O)c(C)n2n1` [Example 20, (3R)-4,7-Dimethylpyrazolo[5,1-c][1,2,4]triazine-3-carboxylic acid (9-amino-4-oxo-1-phenyl-3,4,6,7-tetrahydro[1,4]-diazepino[6,7,1-hi]indol-3-yl)amide], the “IC50 rolipram / IC50 example” value came out at 1.1. Regarding `CN(C)c1cc2c3c(c1)C(c1ccccc1)=N[C@@H](NC(=O)c1cc(Cl)c(N)c(Cl)c1)C(=O)N3CC2` [Example 21, (3R)-4-Amino-3,5-dichloro-N-(9-dimethylamino-4-oxo-1-phenyl-3,4,6,7-tetrahydro[1,4]-diazepino[6,7,1-hi]indol-3-yl)benzamide], the “IC50 rolipram / IC50 example” value is 3.3. For `Nc1cc2c3c(c1)C(c1ccccc1)=N[C@@H](NC(=O)c1cc4ccccc4o1)C(=O)N3CC2` [Example 30, (3R)N-(9-amino-4-oxo-1-phenyl-3,4, 67-tetrahydro[1,4]diazepino[6,7,1-hi]indol-3-yl)-2-benzofuranecarboxamide], the “IC50 rolipram / IC50 example” value is 15.0. Still for that read-out and setting: then `Cc1cc2nnc(C(=O)N[C@@H]3N=C(c4ccccc4)c4cc(N5CCCC5)cc5c4N(CC5)C3=O)c(C)n2n1` [Example 32, (3R) 4,7-dimethyl-pyrazolo[5,1-c][1,2,4]triazine-3-carboxylic acid [4-oxo-1-pheny-9-(pyrrolidin-1-yl)-3,4,6,7-tetrahydro[1,4]diazepino[6,7,1-hi]indol-3-yl)-amide], with 4.0.

Tested on in another data set: not given
Assay: not given
Particulars: prior art; cited from earlier work.
On to `COc1ccc(C2CNC(=O)C2)cc1OC1CCCC1` (stereo not shown) [rolipram], for which the undesirable effects result is “undesirable effects of the type involving nausea and vomiting”. On to `Cn1c(=O)c2[nH]cnc2n(C)c1=O` [theophylline], for which the therapeutic index entry is “low therapeutic index”; the undesirable effects entry was “undesirable effects such as nausea and headaches”.

A further data set has as its system inflammatory cells in rodents.
Assay: not given
The conditions noted are these: in vitro; prior art; cited from earlier work.
Regarding `COc1ccc(C2CNC(=O)C2)cc1OC1CCCC1` (stereo not shown) [rolipram], the “activity of inflammatory cells in rodents” value is “inhibits the activity of inflammatory cells in rodents: inhibition of the synthesis of mediators by mastocytes, eosinophil and basophil polymorphonuclear leukocytes and monocytes; inhibition of chemotaxis and of the degranulation of polymorphonuclear leukocytes”.
